Key:
[1] = system: liver cancer cells; conditions: cited from earlier work
[2] = system: recurrence of hepatocellular carcinoma; test: Clinical test of recurrence of hepatocellular carcinoma after radical treatment in HCV-positive subjects (dynamic CT every 12 weeks, log-rank test); format: in vivo, human; conditions: for 50% Recurrence free interval / 75% Recurrence free interval: peroral, 96 weeks, in combination with branched-chain amino acid preparation
Experimental: Peretinoin produced through a known method was used as an acyclic retinoid. A commercial preparation containing isoleucine, leucine, and valine in combination was used as a branched-chain amino acid.
Forty-six subjects (age: 49 to 80) were tested. […] As a preparation containing a branched-chain amino acid, Aminoleban (registered trademark) EN combination powder or Livact (registered trademark) combination granules were administered in a specific amount during the test period. The daily dose of Aminoleban was 150 g (the daily dose including L-isoleucine (5.7675 g), L-leucine (6.111 g), and L-valine (4.806 g)), and that of Livact was 12.45 g (the daily dose including L-isoleucine (2.856 g), L-leucine (5.712 g), and L-valine (3.432 g)). As an acyclic retinoid, peretionin, was administered to the subjects in combination with the branched-chain amino acid. The subjects were divided into the following groups:
1: peretinoin 600 mg (daily dose, the same applies hereinafter) combination group: 18 subjects (male: 11, female: 7),
2: peretinoin 300 mg combination group: 15 subjects (male: 9, female: 6), and
3: branched-chain amino acid sole administration group: 13 subjects (male: 8, female: 5).
The daily dose of peretinoin was divided into two portions. On each day during 96 weeks after start of the test, peretinoin was perorally administered after meal.
Radical curing and recurrence of hepatocellular carcinoma were confirmed through dynamic CT measured every 12 weeks after the start of the test. The combinatory effect on cumulative recurrence free rate was evaluated through the log-rank test.

[3] = system: recurrence of hepatocellular carcinoma; conditions: clinical study, cited from earlier work
[4] = peretinoin 300 mg daily, 15 HCV-positive subjects
[5] = peretinoin 600 mg daily, 18 HCV-positive subjects

Row | SMILES | apoptosis of liver cancer cells [1] | 50% Recurrence free interval [2, 4] [days] | 75% Recurrence free interval [2, 4] [days] | extension of 75% recurrence free interval compared with the sole branched-chain amino acid administration group ([2]; peretinoin 300 mg in combination with branched-chain amino acid) [days] | cumulative recurrence free rate (FIG. 1) ([2]; peretinoin 600 mg and 300 mg combination groups with branched-chain amino acid) | cumulative recurrence free rate compared with the sole branched-chain amino acid administration group ([2]; peretinoin 600 mg combination group, Log-rank test) | 50% Recurrence free interval [2, 5] [days] | 75% Recurrence free interval [2, 5] [days] | extension of 75% recurrence free interval compared with the sole branched-chain amino acid administration group ([2]; peretinoin 600 mg in combination with branched-chain amino acid) [days] | extension of 50% recurrence free interval compared with the sole branched-chain amino acid administration group ([2]; peretinoin and branched-chain amino acid combination groups (600 mg and 300 mg)) | hepatocellular carcinoma recurrence rate ([2]; peretinoin in combination with branched-chain amino acid) | liver disorders / adverse side effects [3] | recurrence of hepatocellular carcinoma after radical treatment ([3]; long-term administration for one year)
1 | CC(C)=CCC/C(C)=C/CC/C(C)=C/CC/C(C)=C/C(=O)O [geranylgeranoic acid] | induce apoptosis |  |  |  |  |  |  |  |  |  |  |  | 
2 | CC(C)=CCC/C(C)=C/CC/C(C)=C/C=C/C(C)=C/C(=O)O [peretinoin, (2E,4E,6E,10E)-3,7,11,15-tetramethylhexadeca-2,4,6,10,14-pentaenoic acid] |  | >730 | 415 | 227 | remarkable improvement | significantly improved | >730 | 705 | 517 | more than double | reduce | substantially no liver disorders | significantly inhibited
